Data taken from ChEMBL document CHEMBL3045656, “Is the application of carbendazim harmful to healthy plants? Evidence of weak phytotoxicity in tobacco” (J Agric Food Chem, 2002).

Tests used:
Type in all cases: organism-based
Nicotiana tabacum [1] = test: Toxicity in Nicotiana tabacum (tobacco) leaves assessed as calcium level per gram of dry weight per leaf at 5.2 mM treated 3 times in 2 weeks measured prior to onset of flowering relative to control; conditions: in vivo, 336 h, 5200 µM
Nicotiana tabacum [2] = test: Toxicity in Nicotiana tabacum (tobacco) leaves assessed as calcium level per gram of dry weight per leaf at 2.6 mM treated 3 times in 2 weeks measured prior to onset of flowering relative to control; conditions: in vivo, 336 h, 2600 µM
Nicotiana tabacum [3] = test: Toxicity in Nicotiana tabacum (tobacco) leaves assessed as calcium level per gram of dry weight per leaf at 1.3 mM treated 3 times in 2 weeks measured prior to onset of flowering relative to control; conditions: in vivo, 336 h, 1300 µM
Nicotiana tabacum [4] = test: Toxicity in Nicotiana tabacum (tobacco) leaves assessed as potassium level per gram of dry weight per leaf at 5.2 mM treated 3 times in 2 weeks measured prior to onset of flowering relative to control; conditions: in vivo, 336 h, 5200 µM
Nicotiana tabacum [5] = test: Toxicity in Nicotiana tabacum (tobacco) leaves assessed as potassium level per gram of dry weight per leaf at 2.6 mM treated 3 times in 2 weeks measured prior to onset of flowering relative to control; conditions: in vivo, 336 h, 2600 µM
Nicotiana tabacum [6] = test: Toxicity in Nicotiana tabacum (tobacco) leaves assessed as potassium level per gram of dry weight per leaf at 1.3 mM treated 3 times in 2 weeks measured prior to onset of flowering relative to control; conditions: in vivo, 336 h, 1300 µM
Nicotiana tabacum [7] = test: Toxicity in Nicotiana tabacum (tobacco) leaves assessed as phosphorus level per gram of dry weight per leaf at 5.2 mM treated 3 times in 2 weeks measured prior to onset of flowering relative to control; conditions: in vivo, 336 h, 5200 µM
Nicotiana tabacum [8] = test: Toxicity in Nicotiana tabacum (tobacco) leaves assessed as phosphorus level per gram of dry weight per leaf at 2.6 mM treated 3 times in 2 weeks measured prior to onset of flowering relative to control; conditions: in vivo, 336 h, 2600 µM
Nicotiana tabacum [9] = test: Toxicity in Nicotiana tabacum (tobacco) leaves assessed as phosphorus level per gram of dry weight per leaf at 1.3 mM treated 3 times in 2 weeks measured prior to onset of flowering relative to control; conditions: in vivo, 336 h, 1300 µM
Nicotiana tabacum [10] = test: Toxicity in Nicotiana tabacum (tobacco) leaves assessed as nitrogen level per gram of dry weight per leaf at 5.2 mM treated 3 times in 2 weeks measured prior to onset of flowering relative to control; conditions: in vivo, 336 h, 5200 µM
Nicotiana tabacum [11] = test: Toxicity in Nicotiana tabacum (tobacco) leaves assessed as nitrogen level per gram of dry weight per leaf at 2.6 mM treated 3 times in 2 weeks measured prior to onset of flowering relative to control; conditions: in vivo, 336 h, 2600 µM
Nicotiana tabacum [12] = test: Toxicity in Nicotiana tabacum (tobacco) leaves assessed as nitrogen level per gram of dry weight per leaf at 1.3 mM treated 3 times in 2 weeks measured prior to onset of flowering relative to control; conditions: in vivo, 336 h, 1300 µM
Nicotiana tabacum [13] = test: Toxicity in Nicotiana tabacum (tobacco) leaves assessed as effect on carotenoids level at 5.2 mM treated 3 times in 2 weeks measured prior to onset of flowering relative to control; conditions: in vivo, 336 h, 5200 µM
Nicotiana tabacum [14] = test: Toxicity in Nicotiana tabacum (tobacco) leaves assessed as effect on carotenoids level at 2.6 mM treated 3 times in 2 weeks measured prior to onset of flowering relative to control; conditions: in vivo, 336 h, 2600 µM
Nicotiana tabacum [15] = test: Toxicity in Nicotiana tabacum (tobacco) leaves assessed as effect on carotenoids level at 1.3 mM treated 3 times in 2 weeks measured prior to onset of flowering relative to control; conditions: in vivo, 336 h, 1300 µM
Nicotiana tabacum [16] = test: Toxicity in Nicotiana tabacum (tobacco) leaves assessed as effect on chlorophyll-b level at 5.2 mM treated 3 times in 2 weeks measured prior to onset of flowering relative to control; conditions: in vivo, 336 h, 5200 µM
Nicotiana tabacum [17] = test: Toxicity in Nicotiana tabacum (tobacco) leaves assessed as effect on chlorophyll-b level at 2.6 mM treated 3 times in 2 weeks measured prior to onset of flowering relative to control; conditions: in vivo, 336 h, 2600 µM
Nicotiana tabacum [18] = test: Toxicity in Nicotiana tabacum (tobacco) leaves assessed as effect on chlorophyll-b level at 1.3 mM treated 3 times in 2 weeks measured prior to onset of flowering relative to control; conditions: in vivo, 336 h, 1300 µM
Nicotiana tabacum [19] = test: Toxicity in Nicotiana tabacum (tobacco) leaves assessed as effect on chlorophyll-a level at 5.2 mM treated 3 times in 2 weeks measured prior to onset of flowering relative to control; conditions: in vivo, 336 h, 5200 µM
Nicotiana tabacum [20] = test: Toxicity in Nicotiana tabacum (tobacco) leaves assessed as effect on chlorophyll-a level at 2.6 mM treated 3 times in 2 weeks measured prior to onset of flowering relative to control; conditions: in vivo, 336 h, 2600 µM
Nicotiana tabacum [21] = test: Toxicity in Nicotiana tabacum (tobacco) leaves assessed as effect on chlorophyll-a level at 1.3 mM treated 3 times in 2 weeks measured prior to onset of flowering relative to control; conditions: in vivo, 336 h, 1300 µM
Nicotiana tabacum [22] = test: Toxicity in Nicotiana tabacum (tobacco) leaves assessed as magnesium level per gram of dry weight per leaf at 5.2 mM treated 3 times in 2 weeks measured prior to onset of flowering relative to control; conditions: in vivo, 336 h, 5200 µM
Nicotiana tabacum [23] = test: Toxicity in Nicotiana tabacum (tobacco) leaves assessed as magnesium level per gram of dry weight per leaf at 2.6 mM treated 3 times in 2 weeks measured prior to onset of flowering relative to control; conditions: in vivo, 336 h, 2600 µM
Nicotiana tabacum [24] = test: Toxicity in Nicotiana tabacum (tobacco) leaves assessed as magnesium level per gram of dry weight per leaf at 1.3 mM treated 3 times in 2 weeks measured prior to onset of flowering relative to control; conditions: in vivo, 336 h, 1300 µM
Nicotiana tabacum [25] = test: Toxicity in Nicotiana tabacum (tobacco) leaves assessed as reduction of dry weight at 5.2 mM treated 3 times in 2 weeks measured prior to onset of flowering relative to control; design: scale not given: the % may be the effect or the level left; conditions: in vivo, 336 h, 5200 µM
Nicotiana tabacum [26] = test: Toxicity in Nicotiana tabacum (tobacco) leaves assessed as reduction of dry weight at 1.3 to 2.6 mM treated 3 times in 2 weeks measured prior to onset of flowering; conditions: in vivo, 336 h, 2600 µM

How did the Activity (Nicotiana tabacum [1]) turn out when `COC(=O)Nc1nc2ccccc2[nH]1` [CARBENDAZIM] was run?
The Activity was 10.1 mg.

And the Activity (Nicotiana tabacum [2])?
The Activity was 10.2 mg.

And the Activity (Nicotiana tabacum [3])?
The Activity was 10.5 mg.

What about the Activity (Nicotiana tabacum [4]) of the same compound?
Its Activity is 34.1 mg.

What about the Activity (Nicotiana tabacum [5]) of the same compound?
The Activity was 35.4 mg.

What about the Activity (Nicotiana tabacum [6]) of the same compound?
Its Activity is 36.7 mg.

And the Activity (Nicotiana tabacum [7])?
The Activity was 8.47 mg.

And the Activity (Nicotiana tabacum [8])?
Its Activity is 8.61 mg.

And the Activity (Nicotiana tabacum [9])?
The Activity was 9.73 mg.

And the Activity (Nicotiana tabacum [10])?
The Activity was 38.9 mg.

And the Activity (Nicotiana tabacum [11])?
Its Activity is 41.6 mg.

What about the Activity (Nicotiana tabacum [12]) of the same compound?
The Activity was 41.7 mg.

And the Activity (Nicotiana tabacum [13])?
The Activity was 3.9 microg/cm2.

And the Activity (Nicotiana tabacum [14])?
The Activity was 4.64 microg/cm2.

And the Activity (Nicotiana tabacum [15])?
Its Activity is 4.8 microg/cm2.

What about the Activity (Nicotiana tabacum [16]) of the same compound?
The Activity was 21.9 microg/cm2.

What about the Activity (Nicotiana tabacum [17]) of the same compound?
The Activity was 24.98 microg/cm2.

And the Activity (Nicotiana tabacum [18])?
The Activity was 25.88 microg/cm2.

And the Activity (Nicotiana tabacum [19])?
Its Activity is 54.14 microg/cm2.

And the Activity (Nicotiana tabacum [20])?
The Activity was 62.46 microg/cm2.

And the Activity (Nicotiana tabacum [21])?
Its Activity is 66.82 microg/cm2.

What about the Activity (Nicotiana tabacum [22]) of the same compound?
The Activity was 6.5 mg.

And the Activity (Nicotiana tabacum [23])?
The Activity was 6.7 mg.

And the Activity (Nicotiana tabacum [24])?
Its Activity is 6.4 mg.

What about the Activity (Nicotiana tabacum [25]) of the same compound?
The Activity was 17%.

What about the Activity (Nicotiana tabacum [26]) of the same compound?
Its Activity is “Non-toxic”.
